# Source: patent publication US20060045910A1, “Preserved fusogenic vesicles” (priority 2004, published 2006)
# Test system: rat cardiomyocyte cells
# Experiment: Uptake of ATP by rat cardiomyocyte cells (FIG. 5)
# Assay type: cell-based
# Excerpt: While not wishing to be bound by any specific theory, it is currently believed that the dehydration of the vesicles that occurs during freeze-drying causes more ATP to enter the fusogenic vesicles. In this manner, the preserved and re-hydrated fusogenic vesicles may contain a higher concentration of ATP than their unpreserved counterparts.
smiles,measurement,value
"Nc1ncnc2c1ncn2[C@@H]1O[C@H](COP(=O)(O)OP(=O)(O)OP(=O)(O)O)[C@@H](O)[C@H]1O [unencapsulated ATP, adenosine triphosphate]",uptake of ATP by cells,barely absorbed
